According to PubChem BioAssay AID1963962 (Molecular Pharmacology Branch, DTP, NCI, 2024):
pIC50: −log10 of the molar value.

System: 967376-340-R-J2-PDC multicell spheroid viability
Assay: Anticancer human tumor 967376-340-R-J2-PDC patient-derived colon adenocarcinoma cell line growth inhibition [PI3K]
Conditions: for pIC50: curve of first compound; for viability, T/C: stronger effect = lower value
Method in brief: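 Spheroid viability read-out. Co-cultures contained the tumor line plus HUVEC and human MSCs. Each agent was paired with a PI3K inhibitor (inavolisib, alpelisib, duvelisib, copanlisib) across half-log dilutions starting at clinical Cmax, or at 10 microM when Cmax was unknown.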

[1] = second compound 0.00316 µM, first compound 0.0316 µM
[2] = second compound 0.00316 µM, first compound 0.1 µM
[3] = second compound 0.01 µM, first compound 0.0316 µM
[4] = second compound 0.01 µM, first compound 0.1 µM
[5] = second compound 0.0316 µM, first compound 0.0316 µM
[6] = second compound 0.0316 µM, first compound 0.1 µM
[7] = second compound 0.1 µM, first compound 0.0316 µM
[8] = second compound 0.1 µM, first compound 0.1 µM
[9] = second compound 0.316 µM, first compound 0.0316 µM
[10] = second compound 0.316 µM, first compound 0.1 µM
[11] = second compound 1 µM, first compound 0.0316 µM
[12] = second compound 1 µM, first compound 0.1 µM
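Further: spheroids exposed to agents for 7 days before read-out.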
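Wherever viability, T/C is given: luminescence used as surrogate of cell viability.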

CC(=O)c1c(C)c2cnc(Nc3ccc(N4CCNCC4)cn3)nc2n(C2CCCC2)c1=O + COc1c(OCCCN2CCOCC2)ccc2c3n(c(=NC(=O)c4cnc(N)nc4)nc12)CCN3
pIC50 (second compound 0.00316 µM): < 7.00 | pIC50 (second compound 0.01 µM): < 7.00 | pIC50 (second compound 0.0316 µM): < 7.00 | pIC50 (second compound 0.1 µM): < 7.00 | pIC50 (second compound 0.316 µM): > 9.50 | pIC50 (second compound 1 µM): > 9.50 | viability, T/C (second compound 0.00316 µM, first compound 0.000316 µM): 92.9% | viability, T/C (second compound 0.00316 µM, first compound 0.001 µM): 95.8% | viability, T/C (second compound 0.00316 µM, first compound 0.00316 µM): 94.7% | viability, T/C (second compound 0.00316 µM, first compound 0.01 µM): 88.5% | viability, T/C [1]: 87.5% | viability, T/C [2]: 74.7% | viability, T/C (second compound 0.01 µM, first compound 0.000316 µM): 89.8% | viability, T/C (second compound 0.01 µM, first compound 0.001 µM): 99.5% | viability, T/C (second compound 0.01 µM, first compound 0.00316 µM): 92.2% | viability, T/C (second compound 0.01 µM, first compound 0.01 µM): 101% | viability, T/C [3]: 78% | viability, T/C [4]: 60.9% | viability, T/C (second compound 0.0316 µM, first compound 0.000316 µM): 72.4% | viability, T/C (second compound 0.0316 µM, first compound 0.001 µM): 79.9% | viability, T/C (second compound 0.0316 µM, first compound 0.00316 µM): 73.2% | viability, T/C (second compound 0.0316 µM, first compound 0.01 µM): 73.8% | viability, T/C [5]: 86.3% | viability, T/C [6]: 74.3% | viability, T/C (second compound 0.1 µM, first compound 0.000316 µM): 64.2% | viability, T/C (second compound 0.1 µM, first compound 0.001 µM): 49.7% | viability, T/C (second compound 0.1 µM, first compound 0.00316 µM): 64.5% | viability, T/C (second compound 0.1 µM, first compound 0.01 µM): 59.3% | viability, T/C [7]: 62.1% | viability, T/C [8]: 54.6% | viability, T/C (second compound 0.316 µM, first compound 0.000316 µM): 46.7% | viability, T/C (second compound 0.316 µM, first compound 0.001 µM): 39% | viability, T/C (second compound 0.316 µM, first compound 0.00316 µM): 37% | viability, T/C (second compound 0.316 µM, first compound 0.01 µM): 42.2% | viability, T/C [9]: 45.5% | viability, T/C [10]: 44.7% | viability, T/C (second compound 1 µM, first compound 0.000316 µM): 41.5% | viability, T/C (second compound 1 µM, first compound 0.001 µM): 37.3% | viability, T/C (second compound 1 µM, first compound 0.00316 µM): 34.8% | viability, T/C (second compound 1 µM, first compound 0.01 µM): 33.5% | viability, T/C [11]: 34.3% | viability, T/C [12]: 27.9%

CNC(=O)c1ccc(N2C(=S)N(c3ccc(C#N)c(C(F)(F)F)c3)C(=O)C2(C)C)cc1F + COc1c(OCCCN2CCOCC2)ccc2c3n(c(=NC(=O)c4cnc(N)nc4)nc12)CCN3
pIC50 (second compound 0.00316 µM): < 5.00 | pIC50 (second compound 0.01 µM): < 5.00 | pIC50 (second compound 0.0316 µM): < 5.00 | pIC50 (second compound 0.1 µM): < 5.00 | pIC50 (second compound 0.316 µM): 6.41 | pIC50 (second compound 1 µM): > 7.50 | viability, T/C [1]: 92% | viability, T/C [2]: 90% | viability, T/C (second compound 0.00316 µM, first compound 0.316 µM): 73.3% | viability, T/C (second compound 0.00316 µM, first compound 1 µM): 93% | viability, T/C (second compound 0.00316 µM, first compound 3.16 µM): 113% | viability, T/C (second compound 0.00316 µM, first compound 10 µM): 102% | viability, T/C [3]: 90% | viability, T/C [4]: 82.7% | viability, T/C (second compound 0.01 µM, first compound 0.316 µM): 65.7% | viability, T/C (second compound 0.01 µM, first compound 1 µM): 87.3% | viability, T/C (second compound 0.01 µM, first compound 3.16 µM): 105% | viability, T/C (second compound 0.01 µM, first compound 10 µM): 120% | viability, T/C [5]: 78% | viability, T/C [6]: 64.9% | viability, T/C (second compound 0.0316 µM, first compound 0.316 µM): 64.5% | viability, T/C (second compound 0.0316 µM, first compound 1 µM): 60.9% | viability, T/C (second compound 0.0316 µM, first compound 3.16 µM): 79.9% | viability, T/C (second compound 0.0316 µM, first compound 10 µM): 66% | viability, T/C [7]: 65.7% | viability, T/C [8]: 64.3% | viability, T/C (second compound 0.1 µM, first compound 0.316 µM): 64.5% | viability, T/C (second compound 0.1 µM, first compound 1 µM): 51% | viability, T/C (second compound 0.1 µM, first compound 3.16 µM): 53.3% | viability, T/C (second compound 0.1 µM, first compound 10 µM): 64.6% | viability, T/C [9]: 50.3% | viability, T/C [10]: 50.3% | viability, T/C (second compound 0.316 µM, first compound 0.316 µM): 54.5% | viability, T/C (second compound 0.316 µM, first compound 1 µM): 34.8% | viability, T/C (second compound 0.316 µM, first compound 3.16 µM): 37.5% | viability, T/C (second compound 0.316 µM, first compound 10 µM): 54.2% | viability, T/C [11]: 35% | viability, T/C [12]: 36.5% | viability, T/C (second compound 1 µM, first compound 0.316 µM): 39.8% | viability, T/C (second compound 1 µM, first compound 1 µM): 34.6% | viability, T/C (second compound 1 µM, first compound 3.16 µM): 36.6% | viability, T/C (second compound 1 µM, first compound 10 µM): 28.1%

Cn1cnc2c(F)c(Nc3ccc(Br)cc3Cl)c(C(=O)NOCCO)cc21 + COc1c(OCCCN2CCOCC2)ccc2c3n(c(=NC(=O)c4cnc(N)nc4)nc12)CCN3
pIC50 (second compound 0.00316 µM): 5.55 | pIC50 (second compound 0.01 µM): 5.68 | pIC50 (second compound 0.0316 µM): 6.00 | pIC50 (second compound 0.1 µM): 6.48 | pIC50 (second compound 0.316 µM): > 8.02 | pIC50 (second compound 1 µM): > 8.02 | viability, T/C (second compound 0.00316 µM, first compound 0.00949 µM): 85.7% | viability, T/C (second compound 0.00316 µM, first compound 0.03 µM): 79.2% | viability, T/C (second compound 0.00316 µM, first compound 0.0949 µM): 87.5% | viability, T/C (second compound 0.00316 µM, first compound 0.3 µM): 67.9% | viability, T/C (second compound 0.00316 µM, first compound 0.949 µM): 80.5% | viability, T/C (second compound 0.00316 µM, first compound 3 µM): 48.7% | viability, T/C (second compound 0.01 µM, first compound 0.00949 µM): 106% | viability, T/C (second compound 0.01 µM, first compound 0.03 µM): 86.6% | viability, T/C (second compound 0.01 µM, first compound 0.0949 µM): 66.9% | viability, T/C (second compound 0.01 µM, first compound 0.3 µM): 79.9% | viability, T/C (second compound 0.01 µM, first compound 0.949 µM): 87% | viability, T/C (second compound 0.01 µM, first compound 3 µM): 33.4% | viability, T/C (second compound 0.0316 µM, first compound 0.00949 µM): 80.1% | viability, T/C (second compound 0.0316 µM, first compound 0.03 µM): 61.2% | viability, T/C (second compound 0.0316 µM, first compound 0.0949 µM): 51.7% | viability, T/C (second compound 0.0316 µM, first compound 0.3 µM): 53.2% | viability, T/C (second compound 0.0316 µM, first compound 0.949 µM): 57.6% | viability, T/C (second compound 0.0316 µM, first compound 3 µM): 15.3% | viability, T/C (second compound 0.1 µM, first compound 0.00949 µM): 49.2% | viability, T/C (second compound 0.1 µM, first compound 0.03 µM): 59.9% | viability, T/C (second compound 0.1 µM, first compound 0.0949 µM): 49.6% | viability, T/C (second compound 0.1 µM, first compound 0.3 µM): 53.1% | viability, T/C (second compound 0.1 µM, first compound 0.949 µM): 19.8% | viability, T/C (second compound 0.1 µM, first compound 3 µM): 1.95% | viability, T/C (second compound 0.316 µM, first compound 0.00949 µM): 28.5% | viability, T/C (second compound 0.316 µM, first compound 0.03 µM): 65.1% | viability, T/C (second compound 0.316 µM, first compound 0.0949 µM): 46.9% | viability, T/C (second compound 0.316 µM, first compound 0.3 µM): 23.9% | viability, T/C (second compound 0.316 µM, first compound 0.949 µM): 1.63% | viability, T/C (second compound 0.316 µM, first compound 3 µM): 1.2% | viability, T/C (second compound 1 µM, first compound 0.00949 µM): 44.2% | viability, T/C (second compound 1 µM, first compound 0.03 µM): 25.5% | viability, T/C (second compound 1 µM, first compound 0.0949 µM): 32.3% | viability, T/C (second compound 1 µM, first compound 0.3 µM): 16.7% | viability, T/C (second compound 1 µM, first compound 0.949 µM): 1.19% | viability, T/C (second compound 1 µM, first compound 3 µM): 1.28%
